Data published in patent US20210290784A1, “POSITRON EMISSION TOMOGRAPHY (PET) RADIOTRACERS FOR IMAGING MACROPHAGE COLONY-STIMULATING FACTOR 1 RECEPTOR (CSF1R) IN NEUROINFLAMMATION” (The Johns Hopkins University, priority 2018, published 2021).
Entries after “also recorded” stand apart in the source; their conditions may differ.

Assays:
CSF1R [1] = target: T1, CSF1R (Mus musculus, UniProt P09581); test: Brain uptake in intracranial LPS (i.c.-LPS) mouse model of neuroinflammation; format: in vivo; design: from tissue; host or cells: brain of living CD-1, C57BL/6J, transgenic APP (AD model), EAE and CSF1R KO mice; details: i.c.-LPS mice
T1 sequence (P09581 20-977): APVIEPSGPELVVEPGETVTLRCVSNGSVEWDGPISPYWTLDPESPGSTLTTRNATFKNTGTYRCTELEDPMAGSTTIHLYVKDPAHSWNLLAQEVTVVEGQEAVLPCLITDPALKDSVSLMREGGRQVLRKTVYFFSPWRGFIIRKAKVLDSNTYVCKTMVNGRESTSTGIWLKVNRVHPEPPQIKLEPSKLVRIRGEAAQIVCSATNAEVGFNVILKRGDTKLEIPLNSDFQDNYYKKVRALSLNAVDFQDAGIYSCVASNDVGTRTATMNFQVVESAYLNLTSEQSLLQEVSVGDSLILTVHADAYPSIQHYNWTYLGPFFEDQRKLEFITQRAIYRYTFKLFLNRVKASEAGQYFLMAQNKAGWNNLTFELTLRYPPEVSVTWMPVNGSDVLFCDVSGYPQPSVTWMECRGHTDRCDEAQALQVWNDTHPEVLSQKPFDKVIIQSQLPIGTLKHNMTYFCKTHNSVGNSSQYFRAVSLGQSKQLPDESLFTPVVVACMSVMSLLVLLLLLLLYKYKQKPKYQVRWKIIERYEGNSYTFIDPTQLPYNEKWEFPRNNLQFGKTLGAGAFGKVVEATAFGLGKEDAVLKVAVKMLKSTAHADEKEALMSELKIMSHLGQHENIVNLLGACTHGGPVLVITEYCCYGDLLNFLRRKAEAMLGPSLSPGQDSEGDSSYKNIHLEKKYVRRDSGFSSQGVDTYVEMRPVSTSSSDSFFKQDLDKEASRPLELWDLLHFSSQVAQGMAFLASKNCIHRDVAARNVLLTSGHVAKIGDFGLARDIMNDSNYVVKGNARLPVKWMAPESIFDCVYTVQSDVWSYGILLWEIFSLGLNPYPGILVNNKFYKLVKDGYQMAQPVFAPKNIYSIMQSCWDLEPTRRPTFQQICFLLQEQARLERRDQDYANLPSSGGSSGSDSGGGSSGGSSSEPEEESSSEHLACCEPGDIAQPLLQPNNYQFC
Experimental: (§1) Experiment 1, FIG. 1A. […] CD1 mice were anaesthetized with avertin (250 mg/kg, IP). Peri-procedural analgesia was provided with finadine (2.5 mg/kg, SC). The coordinates for intraparenchymal injection in the right forebrain were AP −0.5 mm′ DV −2.5 mm; and ML 1.0 right of midline. The holes were drilled perpendicularly to the previously exposed skull. Sterile phosphate buffered saline (PBS) (0.5 μL) or 5 μg lipopolysaccharide (LPS, 011:B4, Calbiochem, San Diego, Calif.) in 0.5 μL PBS was injected into the brain parenchyma using a 1 μL Hamilton syringe. After injection, the needle was kept in the brain for additional 3 min and slowly removed. The incision was sealed with dental cement. […] The whole brains were removed and dissected on ice. […] The outcome variables were calculated as % SUV.
as §1, with “2,” for “1,”, “1B.” for “1A.”, “The” for “CD1”

[2] = male, baboon, in vivo, 90 min
[3] = Plasma free fraction, centrifree ultrafiltration; format: in vitro ADME; details: baboon plasma, not affected by LPS or LPS and blocking
CSF1R [4] = target: T1, CSF1R; test: Blocking study with unlabeled CPPC in control mice; format: in vivo; design: from tissue; host or cells: brain of living CD-1, C57BL/6J, transgenic APP (AD model), EAE and CSF1R KO mice
Experimental: Mice (male CD1 or C57BL/6J) were killed by cervical dislocation at 45 min following i.v. injection of [^11C]CPPC. The blockers, CPPC (0.3, 0.6, 1.2, 3.0, 10, and 20 mg/kg), or CSF1R inhibitor, compound 8 (Illig C R, et al. (2008)) (2 mg/kg), were given i.p., 5 min before [^11C]CPPC, whereas baseline animals received vehicle. […] Regional brain uptake of [^11C]CPPC at baseline was compared with that with blocking.
Animals were sacrificed by cervical dislocation at 45 min following injection of 5.1 MBq (0.14 mCi) [^11C]CPPC [specific radioactivity=511 GBq/μmol (13.8 Ci/μmol)] in 0.2 mL saline into a lateral tail vein. […] The percentage of standardized uptake value (% SUV) was calculated.
Animals were sacrificed by cervical dislocation at 45 min following injection of 5.0 MBq (0.135 mCi) [^11C]CPPC [specific radioactivity=390 GBq/μmol (10.5 Ci/μmol)] in 0.2 mL saline into a lateral tail vein. […] The outcome variables for the cortex are presented without blood correction as % SUV (FIG. 11A) and with blood correction as SUVR (FIG. 11B).

CSF1R [5] = target: T1, CSF1R

## [11CH3]N1CCN(c2ccc(NC(=O)c3ccc(C#N)o3)c(N3CCCCC3)c2)CC1 [[^11C]CPPC, 5-cyano-N-(4-(4-[^11C]methylpiperazin-1-yl)-2-(piperidin-1-yl)phenyl)furan-2-carboxamide]
CSF1R [1]
  specific fraction of elevated binding vs. sham animals: ~50%
CSF1R [1]; blocker 0.3 mg/kg IP
  reduction of uptake by blocking with nonradiolabeled CPPC, low dose: insignificant
CSF1R [1]; blocker 0.6 or […] IP
  reduction of uptake by blocking with nonradiolabeled CPPC, higher doses: significantly reduced
[2]
  total radiometabolites in blood: 71-76%
[3]
  fraction unbound: 0.0548 ± 0.0098
CSF1R [4]; CD1 mice, unlabeled CPPC 0.6 and 3 mg/kg, P=0.05, n=3
  blood corrected cortex SUVR, blocking vs baseline: significantly lower
CSF1R [4]; CD1 mice, unlabeled CPPC 0.6 and 3 mg/kg, P>0.05, n=3
  cortex % SUV, blocking vs baseline, without blood correction: No significant difference
CSF1R [4]; control CD1 mice, cortex, unlabeled CPPC 0.6 and 3 mg/kg IP, 45 min
  reduction of radioactivity (SUVR, blood-corrected) with blocking: 20%
CSF1R [4]; control CD1 mice, dose escalation, 0.6-3 mg/kg, 45 min, no blood correction
  % SUV brain uptake with blocking, low doses of unlabeled CPPC: no reduction; also recorded: failed to show a significant reduction; also recorded: insignificant blockade
CSF1R [4]; control CD1 mice, dose escalation, 10-20 mg/kg, 45 min, no blood correction
  % SUV brain uptake with blocking, high doses of unlabeled CPPC: gradual trend toward increased uptake; also recorded: insignificant gradual increase of uptake
CSF1R [5]; LPS mice, (LPS uptake-sham uptake)/sham uptake
  ex vivo binding potential (BPex vivo): 0.53-0.62
CSF1R [5]; experiments 2 and 3, blood-corrected, 45 min
  SUVR uptake in i.p.-LPS mice vs controls: significantly greater
CSF1R [5]; i.p.-LPS mice, CPPC 1 mg/kg IP, no blood correction
  blocking with nonradiolabeled CPPC, % SUV radioactivity (experiment 1): did not cause a significant reduction
CSF1R [5]; i.p.-LPS mice, blocking with CPPC and compound 8
  specific fraction of whole-brain binding: more than 50%
